Measurements reported in patent US8871774B2, “Inhibitors of influenza viruses replication” (priority 2010, dated 2014).
Where a name gives a salt, the structure may show the parent alone. Read-outs that look alike come from different tables or passages of the source.

Key:
[1] = tested on: influenza A virus (A/PR/8/34); test: cytopathic effect (CPE) assay, MDCK cell protection by ATP detection; format: cell-based; conditions: mean IC50, MDCK cells, A/PR/8/34, 72 hours, 50% cell protection
[2] = tested on: Influenza virus, strain A/PR/8/34; test: microbe, parasite or virus in culture; format: cell-based
[3] = Influenza A virus, Table 1, read-out: Flu, MDCK IC50
[4] = unidentified influenza virus, PR/8, read-out: bDNA EC50 (uM)
[5] = Table 1, read-out: Flu, MDCK IC50
[6] = Influenza A virus, Table 2, read-out: Flu MDCK IC50
[7] = read-out: bDNA EC50, Table 2, mean EC50, viral RNA level 50% of control wells

| SMILES | IC50 [1, 3] [µM] | EC50 [2, 4] [µM] | IC50 [1, 6] [µM] | also measured |
| --- | --- | --- | --- | --- |
| Cn1cnc(C(=O)N[C@@H]2CCC[C@H](Nc3nc(-c4n[nH]c5ncccc45)ncc3F)C2)c1 [Compound I-24, N-((1R,3S)-3-((5-fluoro-2-(1H-pyrazolo[3,4-b]pyridin-3-yl)pyrimidin-4-yl)amino)cyclohexyl)-1-methyl-1H-imidazole-4-carboxamide] | < 3.3 | < 3.3 | – | – |
| C[C@H]1CCN(C(=O)N[C@@H]2CCC[C@H](Nc3nc(-c4n[nH]c5ncccc45)ncc3F)C2)C1 [Compound I-25, (S)—N-((1R,3S)-3-((5-fluoro-2-(1H-pyrazolo[3,4-b]pyridin-3-yl)pyrimidin-4-yl)-amino)cyclohexyl)-3-methylpyrrolidine-1-carboxamide] | < 3.3 | < 3.3 | – | – |
| Cn1cncc1C(=O)N[C@@H]1CCC[C@H](Nc2nc(-c3n[nH]c4ncc(F)cc34)ncc2F)C1 [Compound I-27, N-((1R,3S)-3-((5-fluoro-2-(5-fluoro-1H-pyrazolo[3,4-b]pyridin-3-yl)pyrimidin-4-yl)amino)cyclohexyl)-1-methyl-tH-imidazole-5-carboxamide] | – | – | – | IC50 [1, 5]: < 3.3 µM; EC50 ([2]; Table 1, mean EC50, viral RNA level 50% of control wells, read-out: bDNA EC50): < 3.3 µM |
| O=C(O)[C@H]1C2CCC(CC2)[C@@H]1Nc1nc(-c2n[nH]c3ncc(F)cc23)ncc1F [Compound I-29] | < 3.3 | < 3.3 | – | – |
| O=C(O)[C@H]1C2CCC(CC2)[C@@H]1Nc1nc(-c2n[nH]c3ncc(F)cc23)ncc1F [Compound I-31, (2S,3S)-3-(5-fluoro-2-(5-fluoro-1H-pyrazolo[3,4-b]pyridin-3-yl)pyrimidin-4-ylamino)bicyclo[2.2.2]octane-2-carboxylic acid sodium salt] | – | – | – | IC50 [1, 5]: < 3.3 µM; EC50 ([2]; read-out: bDNA EC50, Table 1, mean EC50, viral RNA level 50% of control wells): < 3.3 µM |
| O=C(O)[C@H]1C2CCC(CC2)[C@@H]1Nc1nc(-c2n[nH]c3ncc(F)cc23)ncc1Cl [Compound I-34, (2S,3S)-3-((5-chloro-2-(5-fluoro-1H-pyrazolo[3,4-b]pyridin-3-yl)pyrimidin-4-yl)amino)bicyclo[2.2.2]octane-2-carboxylic acid] | < 3.3 | < 3.3 | – | – |
| O=C(O)[C@@H]1C2CCC(CC2)[C@H]1Nc1nc(-c2n[nH]c3ncc(F)cc23)ncc1Cl [Compound I-35, (2R,3R)-3-((5-chloro-2-(5-fluoro-1H-pyrazolo[3,4-b]pyridin-3-yl)pyrimidin-4-yl)amino)bicyclo[2.2.2]octane-2-carboxylic acid] | < 3.3 | < 3.3 | – | – |
| O=C(O)[C@@H]1CCCC2(CCCC2)[C@@H]1Nc1nc(-c2n[nH]c3ncc(F)cc23)ncc1F [Compound I-38] | < 3.3 | < 3.3 | – | – |
| O=C(O)[C@H]1CCCC2(CCCC2)[C@H]1Nc1nc(-c2n[nH]c3ncc(F)cc23)ncc1F [Compound I-39, (6S,7S)-6-((5-fluoro-2-(5-fluoro-1H-pyrazolo[3,4-b]pyridin-3-yl)pyrimidin-4-yl)amino)spiro[4.5]decane-7-carboxylic acid] | – | < 3.3 | < 3.3 | – |
| O=C(O)[C@@H]1CCCC2(CCCC2)[C@@H]1Nc1nc(-c2n[nH]c3ncc(F)cc23)ncc1F [Compound I-40, (6R,7R)-6-((5-fluoro-2-(5-fluoro-1H-pyrazolo[3,4-b]pyridin-3-yl)-pyrimidin-4-yl)amino)spiro[4.5]decane-7-carboxylic acid] | – | – | < 3.3 | EC50 [2, 7]: < 3.3 µM |
| O=C(N[C@@H]1CCC[C@H](Nc2nc(-c3n[nH]c4ncc(F)cc34)ncc2F)C1)c1ccsc1 [Compound I-41, N-((1R,3S)-3-((5-fluoro-2-(5-fluoro-1H-pyrazolo[3,4-b]pyridin-3-yl)pyrimidin-4-yl)amino)cyclohexyl)thiophene-3-carboxamide] | – | < 3.3 | < 3.3 | – |
| O=C(O)[C@H]1C2CCC(CC2)[C@@H]1Nc1nc(-c2n[nH]c3ncc(F)cc23)ncc1F [Compound I-44] | – | – | < 3.3 | EC50 [2, 7]: < 3.3 µM |
| O=C(O)[C@H]1CCCC2(CCCC2)[C@@H]1Nc1nc(-c2n[nH]c3ncc(F)cc23)ncc1F [Compound I-45] | – | < 3.3 | < 3.3 | – |
| O=C(O)[C@@H]1CCCC2(CCCC2)[C@H]1Nc1nc(-c2n[nH]c3ncc(F)cc23)ncc1F [Compound I-46] | – | > 3.3 | < 3.3 | – |
| O=C(N[C@@H]1CCC[C@H](Nc2nc(-c3n[nH]c4ncc(F)cc34)ncc2F)C1)c1csc(Cl)c1 [Compound I-47, 5-chloro-N-((1R,3S)-3-((5-fluoro-2-(5-fluoro-1H-pyrazolo[3,4-b]pyridin-3-yl)pyrimidin-4-yl)amino)cyclohexyl)thiophene-3-carboxamide] | – | < 3.3 | < 3.3 | – |
| O=C(O)C[C@H]1C2CCC(CC2)[C@@H]1Nc1nc(-c2n[nH]c3ncc(F)cc23)ncc1F [Compound I-48, 2-((2S,3S)-3-((5-fluoro-2-(5-fluoro-1H-pyrazolo[3,4-b]pyridin-3-yl)pyrimidin-4-yl)amino)bicyclo[2.2.2]octan-2-yl)acetic acid] | – | < 3.3 | < 3.3 | – |
